In US20060210479A1 (Dow Global Technologies Inc., priority 2004, published 2006):

How the values were obtained:
Assay type in all cases: cell-based, human
LNCaP cell line = test: Chelate permeability: fluorescence of cytoplasm and membrane fractions; details: 1 mM chelate, 2 h, Table 1
T84 cell line = test: as above; details: 1 mM chelate, 2 h, Table 1
Caco-2 cell line = test: as above; details: 1 mM chelate, 2 h, Table 1
[1] = tested on: HEK293 cells, normal (non-induced); test: Permeability of chelates to HEK293 cells, fluorescence of fractions; details: for Fluorescence/mg Cytoplasm / Fluorescence/mg Membrane: HEK293 Normal, 1 mM chelate, 2 hours; for differential fluorescence, cytoplasm versus membrane fractions: normal HEK293 cells
Method: (§1) The human kidney transformed HEK293 cells (obtained from the ATCC) were grown in Eagle's Minimum Essential Medium (EMEM) supplemented with 10% (v/v) heat-inactivated fetal bovine serum, sodium pyruvate, nonessential amino acids and antibiotics in a humidified 5% CO2 atmosphere at 37° C. Medium and supplements were purchased from Gibco bRL (Grand Island, N.Y.). Etoposide was obtained from Sigma (St. Louis, Mo.) and prepared as 20 mM solution in dimethyl sulfoxide (DMSO). For treatments, etoposide was applied to the HEK293 cultures at 1:1000 dilution (final concentration of 20 μM) after cell became 75% confluent. As a control, cells were fed with medium containing 0.1% DMSO in the absence of etoposide. After treatment with etoposide, cells were incubated in a humidified 5% CO2 at 37° C. for 24 hours. HEK293 cells were collected by removing treatment medium and washed 2 times with 10 mM HEPES buffer. Final cell pellets were resuspended in a small amount of HEPES and stored at 4° C. for further study.
(§2) Cells were grown to confluence in T-150 flasks (about 2×10^6 cells). […] After treatment, the chelate or analogue supernatant was discarded and the cells were rinsed three times at room temperature with 10 mM HEPES. Cells were then removed from the flask by manual scraping. Cells were transferred to a 50-mL conical tube and centrifuged (400×g) for 5 minutes and the test material removed. Remaining cells were rinsed twice with cold 10 mM HEPES. Cells were used in cell binding assays.

[2] = tested on: etoposide-induced (apoptotic) HEK293 cells; test: Permeability of chelates to apoptotic cells, fluorescence of fractions; details: for Fluorescence/mg Cytoplasm / Fluorescence/mg Membrane: HEK293 Apoptotic (etoposide 20 μM, 24 hours), 1 mM chelate, 2 hours; for differential fluorescence, cytoplasm versus membrane fractions: etoposide-induced HEK293 cells
Method: as §1, §2

[3] = tested on: cancer cells (LNCaP, Caco-2, T84); test: Chelate permeability and specificity, cancer cells versus normal cells (summary); details: for permeability to cell membranes: cancer cells

SMILES	Fluorescence/mg Cytoplasm (LNCaP cell line)	Fluorescence/mg Membrane (LNCaP cell line)	Fluorescence/mg Cytoplasm (T84 cell line)	Fluorescence/mg Membrane (T84 cell line)	Fluorescence/mg Cytoplasm (Caco-2 cell line)	Fluorescence/mg Membrane (Caco-2 cell line)	Fluorescence/mg Cytoplasm [1]	Fluorescence/mg Membrane [1]	differential fluorescence, cytoplasm versus membrane fractions [1]	Fluorescence/mg Cytoplasm [2]	Fluorescence/mg Membrane [2]	differential fluorescence, cytoplasm versus membrane fractions [2]	specificity or selectivity for cancer cells versus normal cells [3]	permeability to cell membranes [3]
O=C([O-])CN1CCN(CC(=O)[O-])Cc2cccc(n2)CN(CC(=O)[O-])CC1.[Tb+3] [Tb-PCTA]	368.8	362.1	333.4	329.1	366.3	362.8	686	685	did not show any significant differential fluorescence	652	678	did not show any significant differential fluorescence	did not show any specificity or selectivity	no permeability
COP(=O)([O-])CN1CCN(CP(=O)([O-])OC)Cc2cccc(n2)CN(CP(=O)([O-])OC)CC1.[Tb+3] [Tb-PCTMM]	344.5	379.5	328.3	358.7	357.7	388.9	682	679	did not show any significant differential fluorescence	656	962	did not show any significant differential fluorescence	did not show any specificity or selectivity	no permeability
